# PubChem BioAssay AID1963972 (Molecular Pharmacology Branch, DTP, NCI, 2024)
# Tested on: 945468-187-T-J2-PDC spheroids viability
# Assay: Anticancer human tumor 945468-187-T-J2-PDC patient-derived rectal carcinoma cell line growth inhibition [PI3K]
# Conditions: spheroids with HUVEC and MSC; for viability, T/C: stronger effect = lower value
# Description: Combinatorial screen of targeted agents with the PI3K inhibitors inavolisib, alpelisib, duvelisib, and copanlisib in multi-cell type tumor spheroids
# A high-throughput screen of multi-cell type tumor spheroids was designed to identify active combinations of targeted small molecules and PI3K pathway inhibitors. Complex spheroids include a stromal component modeled by human endothelial cells (HUVEC) and fibroblasts modeled by human mesenchymal stem cells (MSCs). The concentration ranges selected for each drug and investigational agent were based upon clinically achievable concentrations if the clinical Cmax of the agent was known.
# Compounds. The drugs and investigational agents: inavolisib (NSC800729), alpelisib (NSC765974), duvelisib (NSC772469), copanlisib (NSC816437), ipatasertib (NSC767898), afuresertib (NSC778305), talazoparib (NSC767125), sapanisertib (NSC764658), selumetinib (NSC741078), tovorafenib (DAY101, NSC766906), vemurafenib (NSC761431), ravoxertinib (NSC781343), sotorasib (NSC818433), MRTX1133 (NSC 836407), abemaciclib (NSC 768073), palbociclib (NSC758247), venetoclax (NSC 766270), SY5609 (NSC837396), enzalutamide (NSC755605), and darolutamide (NSC825331), were obtained from the National Cancer Institute (NCI) Developmental Therapeutics Program Chemical Repository. The FDA-approved anticancer drug set is available from the NCI Developmental Therapeutics Program. […] The stock solutions were prepared in dimethyl sulfoxide (DMSO, Sigma-Aldrich, St. Louis, MO, cat. D2650) at 800-fold the tested concentration and stored at -70 degrees C prior to their use. All drugs and investigational agents were tested over a range starting from a high concentration at or near the clinical Cmax and decreasing in half-log increments. If the clinical Cmax for an agent had not been determined, the highest concentration tested was 10 microM.
# Cell Culture. All cells were maintained in an incubator at 37 degrees C and 5% CO2 with 95% humidity. The PDC lines were cultured according to standard operating procedures established by the NCI PDMR (https://pdmr.cancer.gov/sops/default.htm). All PDCs were thawed and cultured in Matrigel-coated flasks prepared with a working solution of 1X Ham's F-12 nutrient mix, without supplementation (Invitrogen, Waltham, MA, cat. 11765054), 100 U/mL penicillin-streptomycin (Invitrogen, cat. 15140122), and 2.5% Matrigel (Corning Inc., Corning, NY, cat. 354248) for the first three passages. The 354836-022-R-J1-PDC, 475296-252-R-J1-PDC, and 997726-040-R-J2-PDC lines were cultured in 6A media, which includes advanced DMEM/F-12 (Thermo Fisher Scientific, cat. 12634028), 10 mM HEPES (Thermo Fisher Scientific, cat. 15630080), 1X GlutaMAX supplement (Thermo Fisher Scientific, cat. 35050061), 0.1 mg/mL primocin (InvivoGen, San Diego, CA, cat. ant-pm-2), 10% defined fetal bovine serum, heat inactivated (HyClone Laboratories Inc., Logan, UT, cat. SH30070.03HI), 50% L-WRN conditioned media (ATCC, cat. CRL-3276), 1.25 mM N-Acetyl-L-cysteine (Sigma-Aldrich, cat. A9165), 10 mM nicotinamide (Sigma-Aldrich, cat. N0636), 1X B-27 supplement (Thermo Fisher Scientific, cat. 17504044), 1X N-2 supplement (Thermo Fisher Scientific, cat. 17502048), and 10 microM Y-27632 dihydrochloride (Tocris Bioscience, Bristol, United Kingdom, cat. 1254). The 624824-186-R-J2-PDC line was cultured in 6C/Colon 1B media, which includes all 6A media components plus 50 ng/mL human EGF recombinant protein (Thermo Fisher Scientific, cat. PHG0311). […]
# 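Also: spheroids exposed to compounds for seven days before reading.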
structure (smiles),measurement,setting,value
CC(C)NCC(C(=O)N1CCN(c2ncnc3c2C(C)CC3O)CC1)c1ccc(Cl)cc1 (configuration not stated) + CC(Nc1ccc2c(c1)OCCn1cc(N3C(=O)OCC3C(F)F)nc1-2)C(N)=O,IC50,"curve of first compound, second compound 0.00316 µM",> 10 µM
same,IC50,"curve of first compound, second compound 0.01 µM",> 10 µM
same,IC50,"curve of first compound, second compound 0.0316 µM",> 10 µM
same,IC50,"curve of first compound, second compound 0.1 µM",> 10 µM
same,IC50,"curve of first compound, second compound 0.316 µM",> 10 µM
same,IC50,"curve of first compound, second compound 1 µM",> 10 µM
same,"viability, T/C","second compound 0.00316 µM, first compound 0.0316 µM",84.4%
same,"viability, T/C","second compound 0.00316 µM, first compound 0.1 µM",114%
same,"viability, T/C","second compound 0.00316 µM, first compound 0.316 µM",79.4%
same,"viability, T/C","second compound 0.00316 µM, first compound 1 µM",86.4%
same,"viability, T/C","second compound 0.00316 µM, first compound 3.16 µM",104%
same,"viability, T/C","second compound 0.00316 µM, first compound 10 µM",99.3%
same,"viability, T/C","second compound 0.01 µM, first compound 0.0316 µM",110%
same,"viability, T/C","second compound 0.01 µM, first compound 0.1 µM",92.3%
same,"viability, T/C","second compound 0.01 µM, first compound 0.316 µM",96.2%
same,"viability, T/C","second compound 0.01 µM, first compound 1 µM",71.6%
same,"viability, T/C","second compound 0.01 µM, first compound 3.16 µM",97.7%
same,"viability, T/C","second compound 0.01 µM, first compound 10 µM",98.9%
same,"viability, T/C","second compound 0.0316 µM, first compound 0.0316 µM",93.6%
same,"viability, T/C","second compound 0.0316 µM, first compound 0.1 µM",89.5%
same,"viability, T/C","second compound 0.0316 µM, first compound 0.316 µM",95.2%
same,"viability, T/C","second compound 0.0316 µM, first compound 1 µM",90.7%
same,"viability, T/C","second compound 0.0316 µM, first compound 3.16 µM",96.9%
same,"viability, T/C","second compound 0.0316 µM, first compound 10 µM",92.9%
same,"viability, T/C","second compound 0.1 µM, first compound 0.0316 µM",121%
same,"viability, T/C","second compound 0.1 µM, first compound 0.1 µM",77.1%
same,"viability, T/C","second compound 0.1 µM, first compound 0.316 µM",82.8%
same,"viability, T/C","second compound 0.1 µM, first compound 1 µM",81.3%
same,"viability, T/C","second compound 0.1 µM, first compound 3.16 µM",89.9%
same,"viability, T/C","second compound 0.1 µM, first compound 10 µM",78.4%
same,"viability, T/C","second compound 0.316 µM, first compound 0.0316 µM",72.5%
same,"viability, T/C","second compound 0.316 µM, first compound 0.1 µM",77.2%
same,"viability, T/C","second compound 0.316 µM, first compound 0.316 µM",76.2%
same,"viability, T/C","second compound 0.316 µM, first compound 1 µM",87%
same,"viability, T/C","second compound 0.316 µM, first compound 3.16 µM",84.2%
same,"viability, T/C","second compound 0.316 µM, first compound 10 µM",81.9%
same,"viability, T/C","second compound 1 µM, first compound 0.0316 µM",76.5%
same,"viability, T/C","second compound 1 µM, first compound 0.1 µM",65.3%
same,"viability, T/C","second compound 1 µM, first compound 0.316 µM",75.6%
same,"viability, T/C","second compound 1 µM, first compound 1 µM",71.2%
same,"viability, T/C","second compound 1 µM, first compound 3.16 µM",68.5%
same,"viability, T/C","second compound 1 µM, first compound 10 µM",59.7%
CC(C)NCC(C(=O)N1CCN(c2ncnc3c2C(C)CC3O)CC1)c1ccc(Cl)cc1 (configuration not stated),"viability, T/C",compound 0.1 µM,91.8% [middle of 4 runs]
same,"viability, T/C",compound 0.316 µM,90.2% [middle of 4 runs]
same,"viability, T/C",compound 1 µM,103% [middle of 4 runs]
same,"viability, T/C",compound 3.16 µM,99.7% [middle of 4 runs]
same,IC50,curve of compound,> 10 µM
